# Assay results from ChEMBL document CHEMBL1201862, “PubChem BioAssay data set” (2004).
#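 Briefly, cells in 96-well plates were exposed to five compound concentrations for 48 h, and endpoints were estimated by linear interpolation. At the GI50, growth is halved.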 Activity calls are given as the source filed them. No stated cut-off is given here; in the data, active = GI50 up to about 1.1 µM and inactive = higher. Residues, ends and D or L forms follow the SMILES beside them. *: point of attachment. Cbz = O=C(OCc1ccccc1)*
# Tests used:
# Test in all cases: growth of human tumour cells (NCI), 48 h
# T47D = tested on: T47D
# RXF 393 = tested on: RXF 393
# SNB-19 = tested on: SNB-19
# BT-549 = tested on: BT-549
# MDA-MB-435 = tested on: MDA-MB-435
# EKVX = tested on: EKVX
# PC-3 = tested on: PC-3
# HCT-15 = tested on: HCT-15
# UO-31 = tested on: UO-31
# COLO 205 = tested on: COLO 205
# HOP-62 = tested on: HOP-62
# A498 = tested on: A498
# MDA-MB-231 = tested on: MDA-MB-231
# SF-295 = tested on: SF-295
Compound,GI50 (T47D),GI50 (RXF 393),GI50 (SNB-19),GI50 (BT-549),GI50 (MDA-MB-435),GI50 (EKVX),GI50 (PC-3),GI50 (HCT-15) [µM],GI50 (UO-31),GI50 (COLO 205),GI50 (HOP-62),GI50 (A498),GI50 (MDA-MB-231),GI50 (SF-295)
CCOC(=O)C(NC(=O)CC)(Nc1cc(C)on1)C(F)(F)F (centres undefined),> 100 µM (inactive),> 100 µM (inactive),> 100 µM (inactive),> 100 µM (inactive),> 100 µM (inactive),> 100 µM (inactive),> 100 µM (inactive),> 100,> 100 µM (inactive),> 100 µM (inactive),–,–,–,–
O=C1Nc2ccccc2C1Cc1ccccc1 (centres undefined),88.7 µM (inactive),–,> 100 µM (inactive),–,> 100 µM (inactive),56.1 µM (inactive),> 100 µM (inactive),> 100,78.5 µM (inactive),> 100 µM (inactive),> 100 µM (inactive),> 100 µM (inactive),–,–
CC1C2(C)OC(=N)C(C#N)(C(C)O2)C1(C#N)C#N (centres undefined),30.1 µM (inactive),18.2 µM (inactive),> 10 µM (inactive),31.6 µM (inactive),–,30.8 µM (inactive),31.8 µM (inactive),15.5,42.9 µM (inactive),12.1 µM (inactive),–,87.7 µM (inactive),19.9 µM (inactive),90.2 µM (inactive)
O=C(c1ccccc1)N1CCC(Nc2cccnc2)O1 (centres undefined),92.9 µM (inactive),> 100 µM (inactive),> 100 µM (inactive),> 100 µM (inactive),> 100 µM (inactive),> 100 µM (inactive),> 100 µM (inactive),> 100,> 100 µM (inactive),–,> 100 µM (inactive),> 100 µM (inactive),> 100 µM (inactive),> 100 µM (inactive)
Cn1c(=O)[nH]c2[nH]c3ccccc3c2c1=O,> 100 µM (inactive),> 100 µM (inactive),> 100 µM (inactive),> 100 µM (inactive),> 100 µM (inactive),> 100 µM (inactive),–,> 100,> 100 µM (inactive),> 100 µM (inactive),> 100 µM (inactive),> 100 µM (inactive),> 100 µM (inactive),> 100 µM (inactive)
COc1ccc(/C=C2/CCS(=O)(=O)c3ccc(C)cc3C2=O)cc1OC,13.2 µM (inactive),12.9 µM (inactive),14.1 µM (inactive),9.27 µM (inactive),12.5 µM (inactive),13.7 µM (inactive),15.8 µM (inactive),7.18,7.48 µM (inactive),14.2 µM (inactive),28.9 µM (inactive),–,12.8 µM (inactive),14.7 µM (inactive)
Cc1cn(C2CC(N)C(C(=O)O)O2)c(=O)[nH]c1=O (centres undefined),–,–,> 100 µM (inactive),> 100 µM (inactive),> 100 µM (inactive),> 100 µM (inactive),> 100 µM (inactive),> 100,> 100 µM (inactive),> 100 µM (inactive),> 100 µM (inactive),> 100 µM (inactive),> 100 µM (inactive),–
COc1ccc(OC)c2c1C=CC(Br)=CC2,0.192 µM (active),–,0.611 µM (active),0.303 µM (active),0.239 µM (active),0.309 µM (active),0.352 µM (active),0.201,0.332 µM (active),0.314 µM (active),0.269 µM (active),0.324 µM (active),0.285 µM (active),0.16 µM (active)
CCN(CC)CCNc1c(OC)cc(C)c2sc3ccccc3c(=O)c12,11.4 µM (inactive),10.1 µM (inactive),12.7 µM (inactive),11.7 µM (inactive),3.08 µM (inactive),16.8 µM (inactive),7.71 µM (inactive),4.06,6.32 µM (inactive),2.06 µM (inactive),10.8 µM (inactive),–,2.74 µM (inactive),3.85 µM (inactive)
CC(Cc1ccccc1)N(C)Cc1nc(C2CCC([N+](=O)[O-])O2)no1 (centres undefined),19.1 µM (inactive),19 µM (inactive),12.2 µM (inactive),–,6.82 µM (inactive),28.4 µM (inactive),–,2.17,7.29 µM (inactive),3.72 µM (inactive),7.43 µM (inactive),–,2.47 µM (inactive),8.79 µM (inactive)
CNC(=S)Nc1ccc(OC)c2ccccc12,> 10 µM (inactive),–,> 10 µM (inactive),> 10 µM (inactive),> 10 µM (inactive),–,> 10 µM (inactive),> 10,–,> 10 µM (inactive),> 10 µM (inactive),–,> 10 µM (inactive),2.04 µM (inactive)
CC(C)CC(C#CCCOC(=O)c1ccccc1)OC(=O)c1ccccc1 (centres undefined),> 10 µM (inactive),> 10 µM (inactive),> 10 µM (inactive),> 10 µM (inactive),> 10 µM (inactive),> 10 µM (inactive),> 10 µM (inactive),> 10,> 10 µM (inactive),–,> 10 µM (inactive),> 10 µM (inactive),> 10 µM (inactive),> 10 µM (inactive)
CCOC(=O)CNc1nc(=O)c2c(=O)oc(Cl)cc2o1,18.9 µM (inactive),–,33.3 µM (inactive),–,15.7 µM (inactive),16.1 µM (inactive),13.2 µM (inactive),10,12.8 µM (inactive),16.7 µM (inactive),25.4 µM (inactive),17.5 µM (inactive),21.6 µM (inactive),25 µM (inactive)
Cc1ccc(S(=O)(=O)N(CC(O)COc2ccccc2)c2c(F)c(F)c(F)c(F)c2F)cc1 (centres undefined),18 µM (inactive),–,18.5 µM (inactive),13.5 µM (inactive),16.4 µM (inactive),17.9 µM (inactive),13.6 µM (inactive),16.5,12.6 µM (inactive),16.3 µM (inactive),16.7 µM (inactive),17.1 µM (inactive),12.8 µM (inactive),17.1 µM (inactive)
O=C1CCCC/C1=C\c1ccc(Br)cc1,23.3 µM (inactive),–,3.69 µM (inactive),14.5 µM (inactive),15.8 µM (inactive),24.8 µM (inactive),97.7 µM (inactive),–,16.1 µM (inactive),17.6 µM (inactive),20.7 µM (inactive),–,16.8 µM (inactive),21.1 µM (inactive)
CCOc1ccc2ccccc2c1NC1=NCCO1,29.7 µM (inactive),98.6 µM (inactive),29.6 µM (inactive),–,25.8 µM (inactive),60.8 µM (inactive),–,> 100,21 µM (inactive),36.6 µM (inactive),28.2 µM (inactive),35.1 µM (inactive),> 100 µM (inactive),19.1 µM (inactive)
CO[C@]12C[C@@H](CNC(=O)c3cc(Br)c[nH]3)O[C@H]1NC(=O)N2,> 100 µM (inactive),–,> 100 µM (inactive),> 100 µM (inactive),> 100 µM (inactive),> 100 µM (inactive),> 100 µM (inactive),> 100,> 100 µM (inactive),> 100 µM (inactive),> 100 µM (inactive),> 100 µM (inactive),> 100 µM (inactive),> 100 µM (inactive)
Cc1ccc(Nc2nc(N)nc3c2ncn3C2OC(CO)C(O)C2O)cc1 (centres undefined),> 100 µM (inactive),> 100 µM (inactive),> 100 µM (inactive),–,> 100 µM (inactive),> 100 µM (inactive),> 100 µM (inactive),> 100,> 100 µM (inactive),> 100 µM (inactive),> 100 µM (inactive),> 100 µM (inactive),98.9 µM (inactive),> 100 µM (inactive)
COC(=O)[C@H](Cc1c[nH]c2ccccc12)NC(=O)OCC1OC(n2cc(C)c(=O)[nH]c2=O)CC1N=[N+]=[N-] (some centres undefined),> 100 µM (inactive),> 100 µM (inactive),> 100 µM (inactive),> 100 µM (inactive),> 100 µM (inactive),> 100 µM (inactive),> 100 µM (inactive),> 100,> 100 µM (inactive),> 100 µM (inactive),> 100 µM (inactive),–,> 100 µM (inactive),> 100 µM (inactive)
Cc1nn(C(=O)c2ccc(Cl)cc2)c2c1C(c1cccc([N+](=O)[O-])c1)SC(=N)N2 (centres undefined),> 10 µM (inactive),> 10 µM (inactive),> 10 µM (inactive),> 10 µM (inactive),> 10 µM (inactive),> 10 µM (inactive),> 10 µM (inactive),2.56,–,> 10 µM (inactive),> 10 µM (inactive),–,> 10 µM (inactive),> 10 µM (inactive)
N=C(N)c1ccc(/N=N/c2c(O)ccc3cc(O)ccc23)cc1,–,> 100 µM (inactive),> 100 µM (inactive),> 100 µM (inactive),> 100 µM (inactive),> 100 µM (inactive),> 100 µM (inactive),> 100,> 100 µM (inactive),> 100 µM (inactive),> 100 µM (inactive),–,> 100 µM (inactive),> 100 µM (inactive)
COc1cccc(-c2ccc3c4c2O[C@H]2c5[nH]c6ccccc6c5C[C@@]5(O)[C@@H](C3)N(CC3CC3)CC[C@]425)c1,2.1 µM (inactive),1.66 µM (inactive),2.05 µM (inactive),4.83 µM (inactive),1.77 µM (inactive),3.86 µM (inactive),–,1.84,1.72 µM (inactive),1.81 µM (inactive),1.74 µM (inactive),2.19 µM (inactive),0.14 µM (active),1.71 µM (inactive)
CC(NC(=O)C(NC(=O)OCc1ccccc1)C(C)C)C(=O)NCC(=O)O (stereo not drawn) (Cbz-Val-Ala-Gly-OH; configuration not given here),> 100 µM (inactive),> 100 µM (inactive),> 100 µM (inactive),> 100 µM (inactive),> 100 µM (inactive),> 100 µM (inactive),> 100 µM (inactive),> 100,> 100 µM (inactive),> 100 µM (inactive),> 100 µM (inactive),–,> 100 µM (inactive),> 100 µM (inactive)
